Several values for one entry are separate records, joined by “and”; a condition that tells them apart may be missing. Equal values may be shown once. Read-outs that look alike come from different tables or passages of the source.

One assay has as its target yeast F1Fo ATP synthase (Saccharomyces cerevisiae, UniProt P00854+P61829). The experiment in a line: biochemical. As to conditions: for ATP hydrolysis activity, Exp 1-3: upper block, head prints SMP, listed as Og-A.
For assay [1], the target named is yeast mitochondrial ATP synthase (yeast SMP) (Saccharomyces cerevisiae, UniProt P00854+P61829). The experiment in a line: biochemical. The conditions noted are these: for ATP hydrolysis activity, Exp 1-3: SMP, lower block, listed as Og-A.
For assay [2], the target named is yeast mitochondrial ATP synthase (Saccharomyces cerevisiae, UniProt P00854+P61829). The experiment in a line: biochemical. The conditions noted are these: for Cyanide sensitive: 60 min.
In a further assay the target is human ATP synthase (Homo sapiens, UniProt P00846+P05496). The experiment in a line: biochemical. Format: biochemical.
The target of assay [3] is yeast mitochondrial ATP synthase (Saccharomyces cerevisiae, UniProt P61829). The experiment in a line: Uncoupling of the yeast mitochondrial ATP synthase. Format: biochemical. The conditions noted are these: high concentrations.
[4] abbreviates: Oligomycin-A 0.05 μM, cyanide sensitive, yeast frozen mito.
Setting [5] is: Oligomycin-A 0.6 μM, cyanide sensitive, yeast frozen mito.
Setting [6] is: 1 ug/ml Oligomycin, […], frozen human mito.
Where [7] appears, read: read-out: % activity, cyanide sensitive ATP synthesis.

`CC[C@@H]1/C=C/C=C/C[C@H](C)[C@@H](O)[C@](C)(O)C(=O)[C@H](C)[C@@H](O)[C@H](C)C(=O)[C@H](C)[C@@H](O)[C@H](C)/C=C/C(=O)O[C@H]2[C@@H](C)[C@@H](CC1)O[C@@]1(CC[C@@H](C)[C@@H](C[C@H](C)O)O1)[C@@H]2C` [Oligomycin A]: the “inhibition of ATP hydrolysis by yeast F1Fo (extent)” value at yeast F1Fo ATP synthase (F1Fo in bicelles, maximal) is 85%. Besides, the half-maximal inhibitory concentration (IC50) at yeast F1Fo ATP synthase (F1Fo in bicelles, n = 3, read-out: IC50 ± SEM, ATP hydrolysis, purified yeast F1Fo) was 107 ± 1.1 nM; on yeast F1Fo ATP synthase (F1Fo in bicelles, read-out: IC50, ATP hydrolysis, purified yeast F1Fo), about 100 nM; in assay [1] (n = 3, read-out: IC50 ± SEM, ATP hydrolysis, yeast SMP), ~1100 nM and 1100 nM; in assay [2] (n = 3, read-out: IC50 ± SEM, ATP synthesis, yeast mitochondria), 100 ± 8 nM; against human ATP synthase (IC50 ± SEM, ATP synthesis, human mitoplasts), 5.4 ± 0.6 nM. For the same compound, on yeast F1Fo ATP synthase (reconstituted in bicelles, n = 3, read-out: EC50, inhibition of the ATPase activity of purified yeast ATP synthase), the EC50 turned out to be 107 ± 1.1 nM. Also, the “ATP hydrolysis activity, Exp 1-3” value on yeast F1Fo ATP synthase (Og-A 0.0101128 uM) is 0.9127 and 0.9068 and 0.9174; on yeast F1Fo ATP synthase (Og-A 0.0505638 uM), 0.7469 and 0.6678 and 0.6555; on yeast F1Fo ATP synthase (Og-A 0.252819 uM) it was 0.4366 and 0.4305 and 0.5; on yeast F1Fo ATP synthase (Og-A 1.26409 uM) it was 0.3568 and 0.3661 and 0.3907; on yeast F1Fo ATP synthase (Og-A 6.32047 uM) it was 0.2269 and 0.2038 and 0.2221; on yeast F1Fo ATP synthase (Og-A 15.8012 uM), 0.2056 and 0.2009 and 0.2105. In addition, the “ATP hydrolysis activity, Exp 1-3” value is 0.2364 and 0.1839 and 0.1796 at yeast F1Fo ATP synthase (Og-A 31.6024 uM); 0.8851 and 0.8864 and 0.89 in assay [1] (Og-A 0.0101 uM); 0.8632 and 0.8483 and 0.878 in assay [1] (Og-A 0.0506 uM); 0.7765 and 0.7817 and 0.7989 in assay [1] (Og-A 0.2528 uM); 0.6228 and 0.6613 and 0.6108 in assay [1] (Og-A 0.632 uM); 0.4529 and 0.4416 and 0.4356 in assay [1] (Og-A 1.2641 uM). Also, the “ATP hydrolysis activity, Exp 1-3” value in assay [1] (Og-A 6.3205 uM) was 0.1135 and 0.1053 and 0.1112; in assay [1] (Og-A 15.8012 uM) it was 0.0859 and 0.0937 and 0.0705; in assay [1] (Og-A 31.6024 uM), 0.097 and 0.0697 and 0.0822. In addition, the remaining activity at 0.0005 µM in assay [2] (Oligomycin-A 0.0005 μM, cyanide sensitive, yeast frozen mito) stood at 110%. In assay [2] (Oligomycin-A 0.005 μM, cyanide sensitive, yeast frozen mito), the remaining activity at 0.005 µM worked out at 101%. In addition, the Cyanide sensitive in assay [2] (Oligomycin-A 0.01 μM, yeast frozen mito) is 21.2843 nmol/min/mg and 38.526 nmol/min/mg and 37.46 nmol/min/mg; in assay [2] (Oligomycin-A 0.05 μM, yeast frozen mito), 16.4622 nmol/min/mg and 31.3703 nmol/min/mg; in assay [2] (Oligomycin-A 0.08 μM, yeast frozen mito), 15.1607 nmol/min/mg and 21.1456 nmol/min/mg and 29.9684 nmol/min/mg; in assay [2] (Oligomycin-A 0.2 μM, yeast frozen mito), 6.587 nmol/min/mg and 5.248 nmol/min/mg and 9.417 nmol/min/mg; in assay [2] (Oligomycin-A 0.6 μM, yeast frozen mito), 0.8771 nmol/min/mg and 1.272 nmol/min/mg and 1.435 nmol/min/mg. In assay [2] (setting [4]), this compound had an inhibition at 0.05 µM of 16.9%. Further, in assay [2] (setting [4]), the remaining activity at 0.05 µM was found to be 83.1%. The same compound registered an inhibition at 0.6 µM in assay [2] (setting [5]) of 95.6%. Moreover, the remaining activity at 0.6 µM in assay [2] (setting [5]) was determined as 4.43%. For the same compound, the inhibition at 1 µM came out at 100% in assay [2] (Oligomycin-A 1 μM, cyanide sensitive, yeast frozen mito, read-out: % inhibition) and 98% in assay [2] (read-out: inhibition of cyanide sensitive ATP synthesis, yeast mitochondria). The compound further gave an inhibition at 2 µM in assay [2] (Oligomycin-A 2 μM, cyanide sensitive, yeast frozen mito) of 100%. The “extent of inhibition of ATP synthesis of the human enzyme” value at human ATP synthase is reported as “nearly completely”. In addition, the “% activity” value at human ATP synthase (setting [6]) amounted to 19.1774%. The “% inhibition” value at human ATP synthase (setting [6]) is given as 80.8226%. Moreover, the “ATP produced, nmol/min/mg” value on human ATP synthase (setting [6]) is 1.61 nmol/min/mg. On human ATP synthase (setting [6]), the “ATP produced, pmol/min/mg” value is given as 1614.78 pmol/min/mg. The activity at 1 µg/mL at human ATP synthase (setting [6]) was determined as 19.2%. On human ATP synthase (setting [6]), the inhibition at 1 µg/mL came out at 80.8%. Further, the remaining activity at 0.001 µM on human ATP synthase (setting [7]) was determined as 70.9%. The remaining activity at 0.007 µM at human ATP synthase (setting [7]) was found to be 34.6%. The remaining activity at 0.01 µM on human ATP synthase (setting [7]) is 18.4%. Besides, the inhibition at 1.25 µM on human ATP synthase (read-out: inhibition of cyanide sensitive ATP synthesis, human mitoplasts) stood at 98%.
Consider venturicidin, for which the “uncoupling of the yeast mitochondrial ATP synthase” value in assay [3] is “uncouples”.

For orientation: IC50 means the concentration that gives 50% inhibition. For orientation: EC50 means the concentration that produces a half-maximal response. In general, inhibition refers to the relative decrease from the control value, in per cent. As usually defined, the % inhibition is how much of the control response was suppressed.

The record behind these values is PMC7438494 (Communications Biology, 2020).
